US20120295802A1, “METHODS AND COMPOSITIONS FOR CANCER TREATMENT RELATING TO BRCA1 BRCT DOMAIN RECOGNITION OF PHOSPHORYLATED BACH1” (priority 2004, published 2012)
“Also recorded” adds a separate entry of the source.

What was measured:
[1] = system: optimal tandem BRCT domain-interacting phosphopeptide, YDIpSQVFPF, or its non-phosphorylated counterpart; assay: Peptide binding: in vitro translated [35S] BRCA1 BRCT constructs on bead-immobilized phosphorylated or non-phosphorylated peptide; settings: in vitro transcribed and translated protein; for binding to phosphorylated peptide: bead-immobilized biotinylated phosphopeptide, SDS-PAGE and autoradiography; for binding to non-phosphorylated peptide: bead-immobilized biotinylated non-phosphorylated peptide
Protocol: An optimal phosphopeptide for binding the BRCA1 BRCTs was determined by oriented peptide library screening as described previously. This peptide was synthesized in both its phosphorylated and non-phosphorylated form with a biotin group at the N-terminus using N-α-FMOC-protected amino acids and standard BOP/HOBt coupling chemistry. These peptides were conjugated to streptavidin coated beads (Sigma-Aldrich). The wild-type and mutant BRCA1 BRCT domain-containing constructs (residues 1313-1863) were transcribed and translated in vitro in the presence of [^35S]-methionine using the TNT kit (Promega). The bead-immobilized peptides (10 μL of beads) were added to 10 μL of the in vitro translated [^35S]-labeled protein pool in 150 μL binding buffer (50 mM Tris-HCl (pH7.6), 150 mM NaCl, 0.5% NP-40, 1 mM EDTA, 2 mM DTT, 8 μg/mL pepstatin, 8 μg mL^−1 aprotinin, 8 μg mL^−1 leupeptin, 800 μM Na3VO4, 25 mM NaF). After incubation at 4° C. for 3 hours, the beads were washed three times with 200 μL of binding buffer prior to analysis by SDS-PAGE (12.5% (w/v)) and autoradiography.

[2] = system: cholinesterases; settings: by cholinesterases; cited from earlier work
[3] = molecular target: T1, endogenous BACH1 (Homo sapiens, UniProt Q9BX63); assay: Co-immunoprecipitation of BRCA1 BRCTs and BACH1 in transfected U2OS cells; assay type: cell-based; settings: U2OS cells transfected with myc-tagged BRCA1 construct; anti-myc immunoprecipitation, anti-BACH1 blot
T1 construct: endogenous in cells; host or cells: U2OS cells (BACH1 endogenous; the BRCA1 fragment transfected from pcDNA3 with FuGene6)
T1 sequence (Q9BX63 1-1249): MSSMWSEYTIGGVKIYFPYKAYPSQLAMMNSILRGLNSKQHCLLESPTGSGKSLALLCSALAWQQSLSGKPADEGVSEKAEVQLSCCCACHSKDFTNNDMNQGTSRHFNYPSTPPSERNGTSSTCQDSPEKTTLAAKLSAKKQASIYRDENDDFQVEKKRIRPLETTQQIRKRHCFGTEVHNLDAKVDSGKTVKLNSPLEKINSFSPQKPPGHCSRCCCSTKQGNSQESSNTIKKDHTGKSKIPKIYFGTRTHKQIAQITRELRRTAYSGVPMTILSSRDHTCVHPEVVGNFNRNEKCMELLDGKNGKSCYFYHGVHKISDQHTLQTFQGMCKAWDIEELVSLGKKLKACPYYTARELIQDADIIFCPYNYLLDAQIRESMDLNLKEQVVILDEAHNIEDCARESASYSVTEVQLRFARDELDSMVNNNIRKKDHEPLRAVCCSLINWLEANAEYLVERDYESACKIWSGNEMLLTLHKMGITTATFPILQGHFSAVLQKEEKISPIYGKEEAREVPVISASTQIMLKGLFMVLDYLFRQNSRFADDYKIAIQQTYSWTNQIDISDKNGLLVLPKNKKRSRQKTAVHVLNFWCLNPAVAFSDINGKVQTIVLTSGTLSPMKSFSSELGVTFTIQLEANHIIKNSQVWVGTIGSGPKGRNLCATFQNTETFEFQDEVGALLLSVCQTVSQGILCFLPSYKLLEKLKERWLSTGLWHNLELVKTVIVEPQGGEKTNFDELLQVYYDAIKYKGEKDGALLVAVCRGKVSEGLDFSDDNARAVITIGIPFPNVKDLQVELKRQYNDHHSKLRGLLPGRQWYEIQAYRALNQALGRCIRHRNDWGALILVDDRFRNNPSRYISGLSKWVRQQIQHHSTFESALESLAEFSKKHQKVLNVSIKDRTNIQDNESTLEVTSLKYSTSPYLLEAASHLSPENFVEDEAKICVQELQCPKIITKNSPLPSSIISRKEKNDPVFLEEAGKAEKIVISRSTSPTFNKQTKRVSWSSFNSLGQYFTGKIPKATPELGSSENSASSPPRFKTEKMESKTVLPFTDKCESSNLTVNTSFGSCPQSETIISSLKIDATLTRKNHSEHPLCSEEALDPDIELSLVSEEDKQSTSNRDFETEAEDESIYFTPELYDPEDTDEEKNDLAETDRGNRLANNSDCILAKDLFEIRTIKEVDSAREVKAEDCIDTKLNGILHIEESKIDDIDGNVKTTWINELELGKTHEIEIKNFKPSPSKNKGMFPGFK
Protocol: U2OS cells were grown to 50% confluency in 100 cm^2 dishes and transfected with the myc-tagged wild-type or mutant BRCA1 BRCT constructs (residues 1313-1863) (SEQ ID NO.: 6) using FuGene6 transfection reagent (Roche) according to manufacturer's protocol. Cells were collected 30 hrs following transfection, lysed in lysis buffer (50 mM Tris-HCl (pH7.6), 150 mM NaCl, 1.0% NP-40, 5 mM EDTA, 2 mM DTT, 8 μg/mL AEBSF, 8 μg mL^−1 aprotinin, 8 μg mL^−1 leupeptin, 2 mM Na3VO4, 10 mM NaF and the phosphatase inhibitors microcystin and okadaic acid). Lysates containing equal amounts of protein (3 mg) was incubated with 3 μL of a mouse anti-myc antibody (Cell Signaling) for 2 hr at 4° C. and then 10 μL of protein G-sepharose beads (Sigma-Aldrich) were added and samples incubated for an additional 2 hr at 4° C. Beads were washed four times with lysis buffer, bound proteins eluted in SDS-PAGE sample buffer, analysed on 6% polyacrylamide gels, transferred to PVDF membrane, and detected by blotting with rabbit anti-BACH1 antibody. A portion of the lysates were also run and blotted with the anti-BACH1 antibody and the anti-myc antibody to further ensure equal protein loading.

[4] = molecular target: T2, BACH1 phosphopeptide spot array (Homo sapiens); assay: Peptide filter array (spot blot) with GST-BRCA1 BRCTs; assay type: binding; settings: 0.25 μM GST-BRCA1 BRCTs M1775R, 10 times the protein of wild type
T2 construct: made in house; host or cells: bacteria (pGEX clone, IPTG induction)
Protocol: An ABIMED peptide arrayer with a computer controlled Gilson diluter and liquid handling robot was used to synthesize peptides onto an amino-PEG cellulose membrane using N-α-FMOC-protected amino acids and DIC/HOBT coupling chemistry. The membranes were blocked in 5% (w/v) milk in Tris-buffered saline containing 0.1% (v/v) Tween-20 (TBS-T) for 1 hr at room temperature, incubated with 0.025 μM GST-BRCA1 BRCTs or 0.25 μM GST-BRCA1 BRCTs M1775R (residues 1633-1863) in 5% (w/v) milk, 50 mM Tris-HCl (pH 7.6), 150 mM NaCl, 2 mM EDTA, 2 mM DTT for 1 hr at room temperature and washed four times with TBS-T. The membranes were then incubated with anti-GST conjugated HRP (Amersham) in 5% (w/v) milk/TBS-T for 1 hr at room temperature, washed five times with TBS-T, and binding analysed by ECL (Perkin-Elmer).

[5] = system: U2OS cells; assay: Immunofluorescence: localization and nuclear foci formation of myc-tagged BRCA1 tandem BRCT domains; assay type: cell-based; settings: for co-localization with anti-pSer/pThr-Gln epitope antibody staining / nuclear foci formation after DNA damage: U2OS cells, 10 Gy γ-irradiation; for co-localization with anti-pSer/pThr-Gln epitope antibody staining: 2 hrs; for nuclear foci formation after DNA damage: 2 hrs later permeabilized, fixed and stained
Protocol: U2OS cells were seeded onto 18 mm^2 coverslips and transfected with the BRCA1 BRCT construct (residues 1313-1863) and various mutants using FuGene6 transfection reagent (Roche) according to manufacturer's protocol. Thirty hours following transfection, the cells were either treated with 10 Gy of ionizing radiation or mock irradiated and allowed to recover for 120 minutes. Cells were fixed in 3% (v/v) paraformaldehyde/2% (w/v) sucrose for 15 min at RT and permeabilized with a 0.5% (v/v) Triton X-100 solution containing 20 mM Tris-HCl (pH 7.8), 75 mM NaCl, 300 mM sucrose, and 3 mM MgCl2 for 15 min at RT. When necessary, proteins were extracted after IR treatment as described previously. In brief, cells were incubated with extraction buffer (10 mM PIPES pH6.8, 100 mM NaCl, 300 mM sucrose, 3 mM MgCl2, 1 mM EGTA, 0.5% (v/v) Triton X-100) for 5 minutes on ice followed by incubation with extraction stripping buffer (10 mM Tris-HCl pH 7.4, 10 mM NaCl, 3 mM MgCl2, 0.5% (v/v) Triton X-100) for 5 minutes on ice followed by successive washes in ice cold PBS. Slides were fixed as above, stained with primary antibodies at 37° C. for 20 min, then stained with a anti-mouse or anti-rabbit secondary antibody for 20 min (Molecular Probes) at 37° C. Primary antibodies used were mouse anti-myc (Cell Signaling) and rabbit anti-(pSer/pThr)Gln (Cell Signaling). Images were collected on a Axioplan2 microscope (Carl Zeiss) and processed using OpenLab software (Improvision).

Compound	binding to phosphorylated peptide [1]	co-localization with anti-pSer/pThr-Gln epitope antibody staining [5]	nuclear foci formation after DNA damage [5]	also measured
5382InsC: BRCA1 frameshift mutation that results in a stop codon at position 1829 (SEQ ID NO.: 22)	complete loss of phosphopeptide binding			
C[C@H]1C[C@@H]2[C@H]([C@@H](O)C[C@@]3(C)[C@H]2CC[C@]3(O)C(=O)COC(=O)CCC(=O)[O-])[C@@]2(C)C=CC(=O)C=C12.[Na+] [Methylprednisolone sodium succinate ester]				hydrolysis in vivo to free methylprednisolone [2]: rapidly and extensively hydrolysed
G1738E: cancer-linked BRCA1 tandem BRCT domain mutant (SEQ ID NO.: 17)	complete loss of phosphopeptide binding			
M1775R: cancer-associated BRCA1 tandem BRCT domain mutant (SEQ ID NO.: 10)	complete loss of phosphopeptide binding	less co-localization with pSer/pThr-Gln staining foci than the wild-type protein	also formed punctate nuclear foci, although these were slightly reduced in number; also recorded: can still form nuclear foci after DNA damage	in vivo interaction with full-length endogenous BACH1 [3]: completely loses the ability to interact with wild-type BACH1; binding to BACH1 phosphopeptide in which the +3 Phe is mutated to Asp or Glu [4]: bind weakly; also recorded: binds weakly to phosphopeptides with altered motif specificity
P1749R: cancer-linked BRCA1 tandem BRCT domain mutant (SEQ ID NO.: 18)	complete loss of phosphopeptide binding			
R1699Q: BRCA1 tandem BRCT domain mutant detected in breast cancer patients (SEQ ID NO.: 14)	retained a small degree of binding			binding to non-phosphorylated peptide [1]: weak phospho-independent binding; also recorded: bound to both phosphorylated and non-phosphorylated peptides
S1655A/K1702M: phosphopeptide-binding double mutant of BRCA1 tandem BRCT domains (SEQ ID NO.: 20)	completely abolished the interaction	completely failed to co-localize	only faint staining with a very fine granular pattern	nuclear foci, in words ([5]; un-irradiated U2OS cells, Triton X-100 extracted prior to fixation): no foci were observed
Wild-type BRCA1 tandem BRCT domains: myc-tagged human BRCA1 BRCT construct, residues 1313-1863, with SV40 nuclear localization sequence; GST fusion of residues 1633-1863 for the filter array	clearly bind	largely co-localized	demonstrated sharp punctate nuclear foci	binding to non-phosphorylated peptide [1]: not non-phosphorylated peptides; in vivo interaction with full-length endogenous BACH1 [3]: easily detected
Y1853X: BRCA1 BRCT mutant which truncates the last 11 residues (SEQ ID NO.: 21)	complete loss of phosphopeptide binding			
